In article PMC8985094, “Chemical constituents from Carica papaya Linn. leaves as potential cytotoxic, EGFR^wt and aromatase (CYP19A) inhibitors; a study supported by molecular docking” (RSC Advances, 2022):
Like-named read-outs stand apart in the source and are kept apart here.

How the values were obtained:
[1] = test system: MCF-7 cell line; assay: MTT cytotoxicity assay in breast cancer cell line (MCF-7); format: cell-based; details: Homo sapiens, read-out: IC50 on MCF-7 cell lines
Procedure: The cytotoxic effect of the isolated compounds from C. papaya on MCF-7 cells line was evaluated using MTT assay which measures metabolic activity as an indicator of cellular viability and proliferation.
Briefly, breast cancer cell line (MCF-7) were obtained from American Type Culture Collection and cultured in DMEM medium (Invitrogen/Life Technologies) supplemented with 10% FBS (Hyclone, USA). Insulin (10 μg mL^−1, Sigma-Aldrich, USA) and 1% penicillin–streptomycin. the cells were seeded in 96-well plates (VWR, Switzerland) at cell density 1.2–1.8 × 10^4 cells per well. […] After treatments, the medium was removed from all wells of the plate and 20 μL of the MTT reagent (Sigma-Aldrich, USA) (0.5 mg mL^−1) in PBS was added and incubated for 3.5 h at 37 °C. The solution was removed and 50 μL of DMSO was added, incubated for 5 min and the absorbance was measured at 570 nm.
(§1) Results are expressed as mean ± standard deviation (SD) based on triplicate experiments. The IC50 values of the tested compounds were determined using curve fitting in the R programming language and associated packages including Magrittr,[45] drc[46] and ggplot2.[47] Graphs and figures were generated using R console and PyMOL (PyMOL Molecular Graphics System, Schrödinger).

[2] = target: T1, aromatase (CYP19A) (Homo sapiens, UniProt P11511); assay: Aromatase (CYP19A) inhibitor screening kit (fluorometric); format: biochemical
T1 construct: purchased Bio Vision
T1 sequence (P11511 1-503): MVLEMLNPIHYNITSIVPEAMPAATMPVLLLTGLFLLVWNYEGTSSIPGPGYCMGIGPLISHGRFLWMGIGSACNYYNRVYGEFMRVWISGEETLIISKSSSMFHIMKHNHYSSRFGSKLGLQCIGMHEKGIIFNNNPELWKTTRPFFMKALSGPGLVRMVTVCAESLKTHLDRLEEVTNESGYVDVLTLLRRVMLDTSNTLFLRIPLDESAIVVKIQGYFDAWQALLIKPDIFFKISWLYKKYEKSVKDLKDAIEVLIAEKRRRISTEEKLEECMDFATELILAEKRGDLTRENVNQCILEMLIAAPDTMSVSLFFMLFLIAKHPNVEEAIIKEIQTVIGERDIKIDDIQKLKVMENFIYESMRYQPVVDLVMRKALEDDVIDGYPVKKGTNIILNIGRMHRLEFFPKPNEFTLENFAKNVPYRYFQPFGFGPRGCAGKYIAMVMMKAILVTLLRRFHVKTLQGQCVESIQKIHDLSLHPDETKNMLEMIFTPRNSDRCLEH
Procedure: Breast cancer is mostly reliant on estrogen or progesterone, especially in postmenopausal females. […] Aromatase is the key enzyme that acts on androgen precursors for the synthesis of estrogen. Aromatase inhibitors are used to either block the production of estrogen or block the action of estrogen on its receptors and for treatment of estrogen dependant breast cancer.[32,33]
The compounds were dissolved in DMSO in concentrations ranging from 10 to 10^4 nM. The recombinant human aromatase stock was prepared according to the protocol and the samples were added and the plate was incubated for 10 min at 37 °C to allow tested compounds to interact with the aromatase.
as §1

[3] = target: EGFR^wt kinase (Homo sapiens, UniProt P00533); assay: EGFR^wt kinase inhibition assay (BPS Kinase Assay Kit, Kinase-Glo)
Procedure: Then, the reaction was stopped by the addition of a detecting reagent (Kinase-Glo Max reagent), followed by incubation at room temperature for another 15 min. Finally, luminescence was measured using the microplate Robonik P2000 ELISA Reader.

[4] = MCF7, MTT assay, 24 h treatment, mean ± SD
[5] = in vitro enzymatic inhibition, recombinant human aromatase, mean ± SD, read-out: IC50 Aromatase

Sequence of EGFR^wt kinase (P00533 25-1210): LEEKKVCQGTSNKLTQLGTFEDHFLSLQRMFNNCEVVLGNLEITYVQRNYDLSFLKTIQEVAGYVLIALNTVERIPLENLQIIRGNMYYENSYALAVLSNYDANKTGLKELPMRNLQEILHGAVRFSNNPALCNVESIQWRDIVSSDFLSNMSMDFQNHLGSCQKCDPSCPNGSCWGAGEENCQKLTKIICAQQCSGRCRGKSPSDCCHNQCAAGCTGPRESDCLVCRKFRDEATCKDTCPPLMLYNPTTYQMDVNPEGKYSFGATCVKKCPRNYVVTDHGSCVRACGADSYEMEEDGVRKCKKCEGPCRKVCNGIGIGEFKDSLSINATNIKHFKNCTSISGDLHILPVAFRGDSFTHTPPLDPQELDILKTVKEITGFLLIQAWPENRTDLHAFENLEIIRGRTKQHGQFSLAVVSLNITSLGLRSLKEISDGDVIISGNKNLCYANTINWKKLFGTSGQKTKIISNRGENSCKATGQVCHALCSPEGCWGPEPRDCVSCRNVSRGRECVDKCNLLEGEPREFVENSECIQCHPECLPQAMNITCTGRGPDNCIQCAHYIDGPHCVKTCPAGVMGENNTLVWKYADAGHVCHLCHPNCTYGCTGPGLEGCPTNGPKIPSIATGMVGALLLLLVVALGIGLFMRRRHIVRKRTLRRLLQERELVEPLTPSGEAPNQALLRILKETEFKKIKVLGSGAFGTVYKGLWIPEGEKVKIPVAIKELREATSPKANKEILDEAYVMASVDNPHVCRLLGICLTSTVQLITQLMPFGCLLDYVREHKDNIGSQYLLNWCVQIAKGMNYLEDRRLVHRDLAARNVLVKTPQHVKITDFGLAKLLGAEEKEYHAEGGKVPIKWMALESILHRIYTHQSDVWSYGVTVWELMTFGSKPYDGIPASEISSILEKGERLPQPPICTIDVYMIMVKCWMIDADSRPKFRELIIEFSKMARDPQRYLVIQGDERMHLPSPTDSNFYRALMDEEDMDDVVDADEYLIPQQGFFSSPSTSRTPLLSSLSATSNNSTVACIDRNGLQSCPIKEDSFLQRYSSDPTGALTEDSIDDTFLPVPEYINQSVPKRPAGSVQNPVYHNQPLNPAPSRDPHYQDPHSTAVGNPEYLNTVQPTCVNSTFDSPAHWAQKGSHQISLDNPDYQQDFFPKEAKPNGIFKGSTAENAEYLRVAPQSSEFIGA

| Structure (SMILES) | IC50 [1, 4] [nM] | IC50 [2, 5] [nM] | IC50 [3] [nM] | IC50 ([1]; MCF7, 24 h) [nM] | IC50 [2] [nM] |
| --- | --- | --- | --- | --- | --- |
| O=c1c(O[C@@H]2O[C@H](CO)[C@@H](O)[C@H](O)[C@H]2O)c(-c2ccc(O)c(O)c2)oc2cc(O)cc(O)c12 [Compound 7, quercetin-3-O-β-D-glucopyranoside] | 13100 ± 750 | 354 ± 20.7 | 83.4 ± 4.2 | – | – |
| COc1cc(-c2oc3cc(O)cc(O)c3c(=O)c2OC2OC(CO)C(O)C(O)C2O)ccc1O [Compound 9, isorhamnetin 3-O-β-D-glucopyranoside] | 9510 ± 540 | 436 ± 25.6 | 100 ± 5.1 | – | – |
| C[C@@H]1O[C@@H](OC[C@H]2O[C@@H](Oc3c(-c4ccc(O)cc4)oc4cc(O)cc(O)c4c3=O)[C@H](O)[C@@H](O)[C@@H]2O)[C@H](O)[C@H](O)[C@H]1O [Compound 8, kaempferol-3-O-rutinoside] | 4940 ± 280 | 92.8 ± 5.44 | 41.1 ± 2.1 | – | – |
| COC(=O)c1cc(O)c(O)c(O)c1 [Compound 2, methyl gallate] | 1110 ± 60 | 94.1 ± 5.51 | 37.3 ± 1.9 | – | – |
| CC1(C)C[C@H](O)C[C@@]2(C)OC(=O)C=C12 [Compound 3, loliolide] | 28200 ± 1610 | 208 ± 12.2 | 68.8 ± 3.5 | – | – |
| C[C@@H]1O[C@@H](OC[C@H]2O[C@@H](Oc3c(-c4ccc(O)cc4)oc4cc(O)cc(O)c4c3=O)[C@H](O[C@@H]3O[C@@H](C)[C@H](O)[C@@H](O)[C@H]3O)[C@@H](O)[C@@H]2O)[C@H](O)[C@H](O)[C@H]1O [Compound 5, kaempferol 3-O-(2′′,6′′-di-α-O-rhamnopyranosyl)-β-glucopyranoside] | 2470 ± 140 | 77.4 ± 4.53 | 89.6 ± 4.6 | – | – |
| C[C@@H]1O[C@@H](O[C@H]2[C@H](Oc3c(-c4ccc(O)cc4)oc4cc(O)cc(O)c4c3=O)O[C@H](CO)[C@@H](O)[C@@H]2O)[C@H](O)[C@H](O)[C@H]1O [Compound 6, kaempferol 3-O-(2′′-O-α-L-rhamnopyranosyl)-β-D-glucopyranoside] | 3580 ± 200 | 335 ± 19.6 | 64.5 ± 3.3 | – | – |
| C[C@@H]1O[C@@H](OC[C@H]2O[C@@H](Oc3c(-c4ccc(O)c(O)c4)oc4cc(O)cc(O)c4c3=O)[C@H](O)[C@@H](O)[C@@H]2O)[C@H](O)[C@H](O)[C@H]1O [Compound 4, quercetin-3-O-rutinoside] | 25600 ± 1460 | 148 ± 8.64 | 44.5 ± 2.3 | – | – |
| C[C@@H]1N[C@@H]2CCCCCCCC(=O)O[C@H]3CC[C@@H](CCCCCCCC(=O)O[C@H]1CC2)N[C@H]3C [Compound 1, carpaine] | – | – | 47.6 ± 2.4 | 13700 ± 780 | 108 ± 6.32 |
